Earlier results on 2 molecules are cited in patent US20090298802A1, “Pharmaceutical Compositions” (priority 2005, published 2009).

For one series, the system named is patients with COPD. The following applies: 516 patients with COPD, after 26 weeks of dosing, versus placebo recipients.
For another series, the system named is guinea-pig model of COPD. The conditions noted are these: COPD induced by cigarette smoke exposure.

Turning to `O=C(Nc1c(Cl)cncc1Cl)c1ccc(OC(F)F)c(OCC2CC2)c1` [Roflumilast], in the series on patients with COPD, the tolerability profile result was “equivalent to that seen in placebo recipients”.
In the case of `CCOc1ccc(-c2nc(-c3cccc(C(=O)O)n3)cs2)cc1OCC` [Tetomilast], in the series on guinea-pig model of COPD, the neutrophilia result was “improvements” and the specific airway resistance result is listed as “improvements”.
